In patent EP2061765B1, “Serine-threonine protein kinase and PARP modulators” (Senhwa Biosciences, Inc., priority 2006, dated 2008):

Key:
[1] = system: caspase-3; test: Caspase staining as biomarker in tumors; type: in vivo; conditions: 60 mg/kg by IV administration
Description: Caspase staining also was assessed as a biomarker for compound A1 treatment of tumors.

[2] = system: MCF-7 xenografts; test: Tumor suppression in xenograft mice; type: in vivo, NCr nu/nu mice; conditions: oral administration at 100 mg/kg
Description: (§1) Animals were handled under laminar-flow hoods.
(§2) Gemzar™ administered at a dose of 80 mg/kg IP Q3D was used as a positive control.

[3] = system: PC-3 xenografts; test: Tumor suppression in xenograft mice; type: in vivo, NCr nu/nu mice; conditions: oral administration at 150 mg/kg
Description: as §1, §2

[4] = Distribution in plasma and tumors of animals; type: in vivo
Description: The distribution of compound A1 in the plasma and tumors of animals was assessed.

[5] = Pharmacokinetics after IV and PO dosing; conditions: for AUC(0-t) at 8 h: mouse, in vivo
Description: The pharmacokinetics properties of drugs were investigated in ICR mice following an intravenous (IV) bolus and oral (PO) doses of drug at 5 mg/kg and 25 mg/kg respectively. Blood samples were collected at predetermined times and the plasma separated. Plasma was separated from the blood samples collected at 5,15 and 30 minutes and 1, 2, 4, 8 and 24 hours post-dose.
Drug levels were quantified by the LC/MS/MS method described below. Noncompartmental pharmacokinetic analysis was applied for intravenous administration. […] The terminal t1/2 and Co were calculated using the last three and the first three data points, respectively
Bioanalysis was performed using a Quattro Micro LC/MS/MS instrument in the MRM detection mode, with an internal standard (IS). Briefly, 15 µL plasma samples were prepared for analysis using protein precipitation with 120 µL of acetonitrile. The supernatants were transferred into a 96 well plate and subjected to LC-MS/MS analysis using a Phenomenex Polar-RP HPLC column. The mobile phases were 10 mM NH4HCO3 in water (Solution-A) and 10 mM NH4HCO3 in methanol (Solution-B). […] Quantitation of the analytes was performed in the batch mode with two bracketing calibration curves according to the bioanalytical sample list

[6] = biological target: endogenous CK2 (Homo sapiens, UniProt P68400); test: Modulation of endogenous CK2 activity in Jurkat cells; type: cell-based; conditions: drug for two hours
Chain of endogenous CK2 (P68400 whole entry): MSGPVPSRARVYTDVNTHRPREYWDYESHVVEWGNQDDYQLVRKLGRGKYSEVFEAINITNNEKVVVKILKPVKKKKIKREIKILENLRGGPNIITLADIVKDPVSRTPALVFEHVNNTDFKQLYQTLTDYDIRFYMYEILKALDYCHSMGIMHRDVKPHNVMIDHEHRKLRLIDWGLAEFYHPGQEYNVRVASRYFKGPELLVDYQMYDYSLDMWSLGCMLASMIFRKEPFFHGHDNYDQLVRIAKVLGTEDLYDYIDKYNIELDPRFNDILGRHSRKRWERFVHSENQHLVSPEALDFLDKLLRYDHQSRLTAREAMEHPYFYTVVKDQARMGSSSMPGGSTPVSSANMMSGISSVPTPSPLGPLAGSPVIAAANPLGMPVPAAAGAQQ
Chain of endogenous CK2 (P67870 2-215, further chain): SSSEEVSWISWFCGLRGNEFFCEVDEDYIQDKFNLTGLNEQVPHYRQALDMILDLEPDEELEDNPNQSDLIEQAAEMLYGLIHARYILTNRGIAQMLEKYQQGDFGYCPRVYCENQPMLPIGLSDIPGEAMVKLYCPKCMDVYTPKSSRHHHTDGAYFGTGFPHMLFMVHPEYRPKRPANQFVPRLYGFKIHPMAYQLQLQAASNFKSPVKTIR
Description: Before treatment cells were washed, resuspended at a density of about 10^6 cells/milliliter in medium containing 1% fetal calf serum and incubated in the presence of indicated mounts of drug for two hours. […] To 20 microliters of diluted protein was added 10 microliters of substrate peptide ([sequence], dissolved in ADB at a concentration of 1 mM) and 10 microliters of PKA Inhibitor cocktail (Upstate).

[7] = system: SK-OV-3; test: Cell proliferation assay (Alamar Blue); type: cell-based; conditions: Homo sapiens, 96 h, SK-OV-3 cells, four days
Outline: (§3)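 Plate 4,000-5,000 cells per well, add 2X compound dilutions, and incubate four days at 37°C, 5% CO2. Add Alamar Blue, incubate four hours, then record fluorescence (544/590 nm).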

[8] = system: BxPC3; test: Cell proliferation assay (Alamar Blue); type: cell-based; conditions: Homo sapiens, BXPC-3, 96 h, BxPC3 cells, four days
Outline: as §3

[9] = system: COLO205; test: Cell proliferation assay (Alamar Blue); type: cell-based; conditions: Homo sapiens, COLO 205, 96 h, COLO205 cells, four days
Outline: as §3

[10] = system: HT29; test: Cell proliferation assay (Alamar Blue); type: cell-based; conditions: Homo sapiens, HT-29, 96 h, HT29 cells, four days
Outline: as §3

[11] = system: HL-60/MX2; test: Cell proliferation assay (Alamar Blue); type: cell-based; conditions: Homo sapiens, HL60/MX2, 96 h, HL-60/MX2 cells, four days
Outline: as §3

[12] = system: PanC1; test: Cell proliferation assay (Alamar Blue); type: cell-based; conditions: Homo sapiens, PANC-1, 96 h, PanC1 cells, four days
Outline: as §3

[13] = system: MCF-10A; test: Cell proliferation assay (Alamar Blue); type: cell-based; conditions: Homo sapiens, 96 h, MCF-10A cells, four days
Outline: as §3

[14] = system: H460; test: Cell proliferation assay (Alamar Blue); type: cell-based; conditions: Homo sapiens, NCI-H460, 96 h, H460 cells, four days
Outline: as §3

[15] = system: MDA-MB-231 xenografts; test: Tumor suppression in xenograft mice; conditions: IV at 30 and 60 mg/kg and oral at 200 mg/kg
[16] = system: MiaPaca xenografts; test: Tumor suppression in xenograft mice; type: in vivo, NCr nu/nu mice
Description: as §1, §2

[17] = system: BC-PC3 cells; test: Tumor suppression in xenograft mice; conditions: 60mg/kg QD IV, 100mg/kg BID IP, 50mg/kg BID IV, Figure 4A
[18] = Body weight of tumor-bearing xenograft mice; type: in vivo, NCr nu/nu mice; conditions: BC-PC3 xenograft mice; Figure 4B
[19] = Tumor pharmacokinetic study; conditions: 30 mg/kg IV QDx6
Description: Plasma, blood and tumor samples were taken on day 1,4 and 6 and three animals sacrificed for each time point.

In the case of `O=C(O)c1ccc2c(c1)nc(Nc1cccc(Cl)c1)c1ccncc12` [A1], the “caspase-3 cell staining levels versus untreated control cells” value [1] is reported as “four-fold greater”, the tumor growth [2] is reported as “significantly inhibited tumor growth” and the tumor growth [3] is reported as “significantly inhibited tumor growth”. The “compound identified in tumors” value ([4]; 30 mg/kg IV) was “about 42.9 micromolar”, the “compound identified in tumors” value ([4]; 60 mg/kg IV) was roughly 7.0 µM and the “compound identified in plasma” value ([4]; 200 mg/kg orally) was roughly 9.5 µM. For the same molecule, the “compound identified in tumors” value ([4]; 200 mg/kg orally) was roughly 6.4 µM, the CLs ([5]; ICR mice, IV 5 mg/kg) was 25 mL/min/kg and the Kel ([5]; ICR mice, IV 5 mg/kg) was 0.1586 h⁻¹. It also gave a Kel ([5]; ICR mice, PO 25 mg/kg) of 0.1076 h⁻¹, an AUC(0-t) at 8 h ([5]; iv, 5 mg/kg) of 2910 ng·h/mL and an AUC(0-t) at 8 h ([5]; po, 25 mg/kg) of 1580 ng·h/mL.

Molecule `COC(=O)c1ccc2c(c1)nc(Nc1ccc(F)c(Cl)c1)c1ncncc12` [drawing 523] has an IC50 [6] greater than 50 µM.

Molecule `O=C(O)c1ccc2c(c1)nc(Nc1cccc(Cl)c1)c1ccncc12` [drawing 448] has an IC50 [7] of 9.03 µM, an IC50 [8] of 2.75 µM and an IC50 [9] of 1.96 µM. The IC50 [10] was 1.56 µM, the IC50 [11] was 10.5 µM and the IC50 [12] was 17.8 µM. The IC50 [13] was 0.53 µM and the IC50 [14] was 10.3 µM.

With `C#Cc1cccc(Nc2nc3cc(C(=O)O)ccc3c3cncnc23)c1` [A2] the tumor progression [15] was “significantly inhibited tumor progression”, the tumor progression ([16]; IV at 50 and 60 mg/kg and IP at 100 mg/kg) was “significantly inhibited tumor progression” and the tumor progression ([16]; oral 100 mg/kg QDx8 and 200 mg/kg QDx6, meglumine salt) was “significantly inhibited tumor progression”. The tumor progression [17] was “significantly inhibited tumor progression”, the body weight [18] was “not significantly altering body weight” and the “half life on repeated dosing” value [19] was “about doubles”. The “minimum concentration after six days” value [19] was 4-5 times higher and the “terminal slope on repeated dosing” value [19] was “decreases”.
